ChEMBL document CHEMBL1806420, “Design, synthesis and antimycobacterial evaluation of novel 3-substituted-N-aryl-6,7-dimethoxy-3a,4-dihydro-3H-indeno[1,2-c]pyrazole-2-carboxamide analogues” (Bioorg Med Chem Lett, 2011)
Converted amounts (≈) assume the structure as drawn.

What was measured:
[1] = system: Mycobacterium tuberculosis; assay: Antimycobacterial activity against isoniazid-resistant Mycobacterium tuberculosis by agar dilution method; format: functional
[2] = system: Mycobacterium tuberculosis; assay: Ratio of isoniazid MIC to compound MIC for isoniazid-resistant Mycobacterium tuberculosis; format: functional

Row | Compound | MIC [1] [µM] | Ratio [2]
1 | COc1cc2c(cc1OC)C1=NN(C(=O)Nc3ccc(Br)cc3)C(c3ccncc3)C1C2 (centres undefined) | 10 (≈ 4.93 µg/mL) | 
2 | COc1cc2c(cc1OC)C1=NN(C(=O)Nc3ccc(F)c(Cl)c3)C(c3ccncc3)C1C2 (centres undefined) | 10 (≈ 4.67 µg/mL) | 
3 | COc1cc2c(cc1OC)C1=NN(C(=O)Nc3ccc(F)cc3)C(c3ccccc3)C1C2 (centres undefined) | 10 (≈ 4.31 µg/mL) | 
4 | CO[C@H]1/C=C/O[C@@]2(C)Oc3c(C)c(O)c4c(O)c(c(/C=N/N5CCN(C)CC5)c(O)c4c3C2=O)NC(=O)/C(C)=C\C=C\[C@H](C)[C@H](O)[C@@H](C)[C@@H](O)[C@@H](C)[C@H](OC(C)=O)[C@@H]1C [RIFAMPIN] | 3.12 (≈ 2.57 µg/mL) | 
5 | COc1ccc(C2C3Cc4cc(OC)c(OC)cc4C3=NN2C(=O)Nc2ccc(F)c(Cl)c2)cc1OC (centres undefined) | 12.5 (≈ 6.57 µg/mL) | 
6 | COc1cc2c(cc1OC)C1=NN(C(=O)Nc3ccc(F)cc3)C(c3ccncc3)C1C2 (centres undefined) | 6.25 (≈ 2.7 µg/mL) | 
7 | COc1cc2c(cc1OC)C1=NN(C(=O)Nc3ccc(F)cc3)C(c3ccccc3Cl)C1C2 (centres undefined) | 12.5 (≈ 5.82 µg/mL) | 
8 | COc1cc2c(cc1OC)C1=NN(C(=O)Nc3ccc(F)cc3)C(c3ccc(F)cc3)C1C2 (centres undefined) | 0.78 (≈ 0.351 µg/mL) | 16
9 | COc1cc2c(cc1OC)C1=NN(C(=O)Nc3ccc(Br)cc3)C(c3ccc(F)cc3)C1C2 (centres undefined) | 6.25 (≈ 3.19 µg/mL) | 
10 | COc1ccc(C2C3Cc4cc(OC)c(OC)cc4C3=NN2C(=O)Nc2ccc(F)c(Cl)c2)cc1 (centres undefined) | 12.5 (≈ 6.2 µg/mL) | 
11 | COc1cc2c(cc1OC)C1=NN(C(=O)Nc3ccc(Br)cc3)C(c3ccccc3Cl)C1C2 (centres undefined) | 10 (≈ 5.27 µg/mL) | 
12 | COc1ccc(C2C3Cc4cc(OC)c(OC)cc4C3=NN2C(=O)Nc2ccc(F)cc2)cc1 (centres undefined) | 12.5 (≈ 5.77 µg/mL) | 
13 | COc1cc2c(cc1OC)C1=NN(C(=O)Nc3ccc(F)c(Cl)c3)C(c3ccc(F)cc3)C1C2 (centres undefined) | 3.12 (≈ 1.51 µg/mL) | 4
14 | COc1cc2c(cc1OC)C1=NN(C(=O)Nc3ccc(F)c(Cl)c3)C(c3ccccc3)C1C2 (centres undefined) | 12.5 (≈ 5.82 µg/mL) | 
15 | COc1cc2c(cc1OC)C1=NN(C(=O)Nc3ccc(Br)cc3)C(c3ccccc3)C1C2 (centres undefined) | > 10 | 
16 | COc1cc2c(cc1OC)C1=NN(C(=O)Nc3ccc(F)c(Cl)c3)C(c3ccccc3Cl)C1C2 (centres undefined) | 12.5 (≈ 6.25 µg/mL) | 
17 | NNC(=O)c1ccncc1 [ISONIAZID] | 12.5 (≈ 1.71 µg/mL) | 
